Measured values published in the NIST ThermoML archive (doi:10.1021/je200628n).
Numbers after ± are expanded uncertainties.

Assay: activity coefficient (dimensionless); of the first substance listed, at infinite dilution; xn = mol fraction of the nth substance listed
Details: 101 kPa, Liquid, Chromatography, x1 = 0

activity coefficient (348.25 K) | activity coefficient (353.15 K) | activity coefficient (358.25 K) | activity coefficient (363.21 K) | activity coefficient (328.15 K) | activity coefficient (338.15 K) | activity coefficient (343.15 K) | activity coefficient (348.15 K) | activity coefficient (338.2 K) | activity coefficient (353.22 K) | SMILES
1.07 ± 0.048 | 1.1 ± 0.049 | 1.12 ± 0.051 | 1.16 ± 0.053 | – | – | – | – | – | – | CCCCO [butan-1-ol] + NCCCCCCCCCCCCN
1.33 ± 0.062 | 1.23 ± 0.057 | 1.12 ± 0.05 | 1.05 ± 0.046 | – | – | – | – | – | – | ClCCl [dichloromethane] + NCCCCCCCCCCCCN
1.36 ± 0.064 | 1.29 ± 0.06 | 1.22 ± 0.056 | 1.15 ± 0.052 | – | – | – | – | – | – | CCOC(C)=O [ethyl acetate] + NCCCCCCCCCCCCN
– | – | – | – | 2.81 ± 0.14 | 2.7 ± 0.14 | 2.67 ± 0.14 | 2.65 ± 0.14 | – | – | C=CCCC [1-pentene] + NCCCCCCCCN
– | – | – | – | – | – | – | 2.43 ± 0.12 | 2.94 ± 0.15 | 2.23 ± 0.12 | CCCCCCl [1-chloropentane] + NCCCCCCCCCCN
– | – | – | – | 1.8 ± 0.09 | 1.67 ± 0.083 | 1.62 ± 0.08 | 1.59 ± 0.078 | – | – | c1ccccc1 [benzene] + NCCCCCCCCN

Further lines, the molecule ahead of its results:

SMILES | activity coefficient (348.25 K) | activity coefficient (353.15 K) | activity coefficient (358.25 K) | activity coefficient (363.21 K) | activity coefficient (328.15 K) | activity coefficient (338.15 K) | activity coefficient (343.15 K) | activity coefficient (348.15 K) | activity coefficient (338.2 K) | activity coefficient (353.22 K)
ClC(Cl)(Cl)Cl [tetrachloromethane] + NCCCCCCCCCCCCN | 2.37 ± 0.12 | 2.28 ± 0.12 | 2.06 ± 0.11 | 1.98 ± 0.1 | – | – | – | – | – | –
ClC(Cl)(Cl)Cl [tetrachloromethane] + NCCCCCCCCN | – | – | – | – | 2.06 ± 0.11 | 1.66 ± 0.082 | 1.51 ± 0.073 | 1.37 ± 0.065 | – | –
CCCCCCC [heptane] + NCCCCCCCCCCCCN | 5.21 ± 0.27 | 5.13 ± 0.26 | 5.04 ± 0.26 | 4.97 ± 0.26 | – | – | – | – | – | –
C=CCCCCC [1-heptene] + NCCCCCCCCCCN | – | – | – | – | – | – | – | 3.1 ± 0.16 | 3.43 ± 0.18 | 2.97 ± 0.15
Cc1ccccc1 [toluene] + NCCCCCCCCCCCCN | 2.6 ± 0.13 | 2.51 ± 0.13 | 2.42 ± 0.12 | 2.33 ± 0.12 | – | – | – | – | – | –
